Structures are written as SMILES. Read-outs that look alike come from different tables or passages of the source.

One data set concerns GABAA receptor. The data set can be described thus: Rat hippocampal brain slice electrophysiology assay. Type of data set: cell-based. Particulars: in the presence of EC20 of muscimol (2 μM); CA1 population spike; read-out: EC50, potentiation of the action of agonists at the GABAA receptor.
Data set [1] addresses T1, phosphodiesterase 2 (PDE2) (Homo sapiens, UniProt O00408).
T1 construct: Cerep, Inc
The data set can be described thus: Cerep Diversity Profile: enzymes, PDE2. Type of data set: biochemical. As to conditions: tested at 10 μM; read-out: inhibition of control binding, PDE2.

A short description of data set [2]: Pharmacokinetic study in domestic pigs, IV infusion. Type of data set: in vivo, pig.
Data set [3] can be described thus: Anesthetic effects in rats, bolus IV, Loss of Righting Reflex (LORR). Type of data set: in vivo, rat. Particulars: male, Sprague-Dawley, rat, in vivo; bolus IV, rats; read-out: MTD (maximum tolerated dose). How it is done: (§1) Also measured was minimum dose to achieve LORR and maximum tolerated dose (MTD).
(§2) The ranges of doses studied were 1.9, 2.3, 3.0, 7.0, 13.7, 14.0 and 15.2 mg/kg for Compound 1 and 3.5, 4.0, 7.0 and 14.0 mg/kg for […].

The subject of another data set is male Sprague-Dawley rats. Described as above. Particulars: rats. Type of data set: in vivo, rat. How it is done: as §1, §2
Another data set deals with rats. The data set can be described thus: Separate rat study, bolus IV, 1% in cremaphor, sleep time. Type of data set: in vivo. Particulars: 7 mg/kg bolus IV, rats.
Data set [4] relates to Beagle dogs. The data set can be described thus: Hemodynamic effects (blood pressure) in beagle dogs, bolus IV. Type of data set: in vivo, dog. As to conditions: 4 min after administration. How it is done:
The study was a crossover design. […] The MTD was defined as the dose that reduced mean arterial blood pressure (MAP) by 50% or to less than 50 millimeters of mercury (mmHg or mm Hg). All animals received supplemental oxygen and, if needed, ventilatory support after 4 min of apnea.
Hemodynamic data, such as mean arterial pressure (MAP), were recorded at baseline, 1, 2, 4, 8, 15, 20 and 30 min. Compound 1 was administered at 5, 10, 15 and 30 mg/kg to 3, 6, 6 and 3 dogs respectively. […] Data were analyzed with a 2-way ANOVA followed by t-test with Bonferroni correction for multiple comparisons.

A further data set relates to mongrel dogs. The data set can be described thus: Anesthetic and hemodynamic effects in chronically instrumented mongrel dogs, total intravenous anesthesia. Type of data set: in vivo, dog. How it is done:
Assessments included hemodynamic performance parameters such as blood pressure, heart rate, and cardiac output as well as clinical chemistry parameters and EEG analysis.
General anesthesia was induced in the dogs by IV administration of 7 mg/kg […], and the dogs were tracheally intubated and mechanically ventilated. General anesthesia was maintained using 2.2% end-tidal sevoflurane in oxygen. A thoracotomy was performed at the fifth left intercostal space, and heparin-filled catheters were placed in the proximal descending thoracic aorta (P50 pressure transducer Gould, Oxnard, Calif.), and in the right and left atria to provide IV access. An ultrasonic transit-time flow probe (T108, Transonic Systems, Ithaca, N.Y.) was placed around the ascending thoracic aorta. A […] Doppler flow probe (Model HDP-20-3.5, Triton Surgical Technologies, San Diego, Calif.) was placed around the left anterior descending coronary artery. Six MHz sonomicrometer crystals (Hartley, Houston, Tex.) were implanted in the subendocardium. A high fidelity micromanometer (P7, Konigsberg Instruments, Pasadena, Calif.) was inserted into the left ventricle. […]
The dogs were fasted overnight. […] EEG was recorded continuously during the experiment. Arterial blood gas and chemistry measures included pH, pO2, sO2, pCO2, tCO2, carbonate, potassium, sodium, and base excess, and were measured immediately following blood draws using a blood gas and chemistry analyzer (ABL-505, Radiometer, Copenhagen). […] Following stabilization, baseline measurements of EEG, hemodynamics, ECG, and blood gases were recorded. Blood samples were drawn for PK and clinical chemistry, and pressure volume loops were generated and data recorded.
Following induction, the dogs were tracheally intubated, and mechanically ventilated using 50% oxygen in nitrogen throughout the subsequent drug infusion and recovery periods. […] MAP was monitored continuously, and dosing was discontinued immediately if MAP decreased below 50 mmHg at any time or if the heart rate increased over 200 beats per minute. […]

For a further data set, the system named is ferrets. The data set can be described thus: Pro-emetic activity in ferrets. Type of data set: in vivo, ferret. Particulars: 15 min IV infusion at 1 mg/kg/min, administered alone, 6 ferrets, 45 min. An excerpt: Immediately prior to dosing, food and water were removed.
For data set [5], the system named is Beagle dogs. Particulars: dogs.

T1 sequence (O00408 whole entry): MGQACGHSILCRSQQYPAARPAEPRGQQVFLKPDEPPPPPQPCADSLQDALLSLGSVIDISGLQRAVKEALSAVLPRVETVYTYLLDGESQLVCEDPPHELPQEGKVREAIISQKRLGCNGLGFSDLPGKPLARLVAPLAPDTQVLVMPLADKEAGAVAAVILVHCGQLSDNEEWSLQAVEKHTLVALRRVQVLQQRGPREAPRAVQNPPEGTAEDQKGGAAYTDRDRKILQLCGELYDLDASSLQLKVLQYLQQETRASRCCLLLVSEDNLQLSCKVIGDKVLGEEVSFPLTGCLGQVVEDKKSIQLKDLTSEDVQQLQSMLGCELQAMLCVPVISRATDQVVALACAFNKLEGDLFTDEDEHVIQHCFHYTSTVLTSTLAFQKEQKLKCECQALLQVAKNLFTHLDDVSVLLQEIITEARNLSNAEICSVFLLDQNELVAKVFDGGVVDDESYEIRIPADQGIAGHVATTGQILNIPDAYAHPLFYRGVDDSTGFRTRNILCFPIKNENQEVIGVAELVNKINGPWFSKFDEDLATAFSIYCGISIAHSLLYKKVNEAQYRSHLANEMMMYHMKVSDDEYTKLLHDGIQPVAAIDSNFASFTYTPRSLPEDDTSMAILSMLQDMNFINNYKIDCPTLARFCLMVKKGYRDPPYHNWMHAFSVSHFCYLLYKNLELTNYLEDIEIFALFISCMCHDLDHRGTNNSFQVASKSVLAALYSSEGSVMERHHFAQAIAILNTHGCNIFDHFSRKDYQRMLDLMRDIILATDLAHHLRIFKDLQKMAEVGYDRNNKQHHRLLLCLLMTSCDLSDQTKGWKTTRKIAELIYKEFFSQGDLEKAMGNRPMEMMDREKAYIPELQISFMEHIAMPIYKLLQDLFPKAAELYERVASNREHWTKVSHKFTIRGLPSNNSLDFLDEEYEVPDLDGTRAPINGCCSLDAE
Protocol for GABAA receptor: Rat hippocampal slices were prepared as follows: Male Wistar rats (100-125 g) were anesthetized with isoflurane and decapitated, the brains quickly removed, collected, blocked, and cut using a vibratome (OTS-4000, Electron Microscope Sciences) into 400 micron (μm) transverse sections. Slices were transferred to a warmed (33° C.), submerged tissue-recording chamber perfused at 2.5-3 ml/min with modified artificial cerebrospinal fluid (120 mM sodium chloride, 3.5 mM, potassium chloride, 2.5 mM calcium chloride, 1.3 mM magnesium chloride, 1.25 mM sodium phosphate, 26 mM sodium carbonate, 10 mM glucose, saturated with 95% oxygen, pH 7.4). […]
Electrophysiology testing was accomplished as follows: A glass rod electrode (1-2 μM tip diameter) was filled with 3M sodium chloride (NaCl) and placed in the CA1 pyramidal cell layer of hippocampal slices. […] Population responses of the CA1 pyramidal cells were recorded with an Axoprobe-1A (Axon Instruments, Molecular Devices, Sunnyvale, Calif.). pCLAMP 8.2 (Axon Instruments) was used for acquiring the data, and Clampfit (Axon Instruments) was used for analysis. […] Peak to peak amplitude of the population response from each stimulus was measured as an indicator of cell excitability. […]
Data were acquired and analyzed using Clampfit and Excel (Microsoft), and reported as mean and individual values.

As usually defined, the EC50 is the concentration giving half of the maximal effect. The term inhibition denotes the change of the read-out against control, counted positive when it falls. One may read the MTD as the highest dose tested that stayed within the study's limit of toxicity. `CC[C@@H](C)c1cccc([C@H](C)CC)c1O` [Compound 1]: in the data set on GABAA receptor, the EC50 came to 2500 nM. The inhibition at 10 µM in data set [1] is greater than 20%. Besides, the Clearance entry in data set [2] (pig, IV infusion) was “exceeded estimated hepatic blood flow”. For the same compound, the metabolic pathway result in [2] (pigs) is “glucuronidation in the 1-position with the 4-position being subject to hydroxylation followed by glucuronide and sulfate conjugation”. Also, the maximal tolerated dose (MTD) in data set [3] came out at 14 mg/kg. Further, the deaths result in the data set on male Sprague-Dawley rats (15.2 mg/kg bolus IV) is given as “Two rats died”. Besides, the “HD50 (dose required to cause 50% of the rats to lose righting reflex)” value in the data set on male Sprague-Dawley rats (bolus IV) was 2.1 mg/kg. For the same compound, the “HD7min (dose required to produce 7 minutes of anesthesia)” value in the data set with male Sprague-Dawley rats (bolus IV) amounted to 2.3 mg/kg. The “TI (therapeutic index, ratio of MTD to HD7 min)” value in the data set with male Sprague-Dawley rats (bolus IV) was found to be 6.1. For the same compound, the “Sleep Time (duration of anesthesia)” value in the data set with rats was determined as 23 min. Moreover, the “MAP % change from baseline” value was “+11%” in the data set with Beagle dogs [4] (10 mg/kg bolus IV), −25% in the data set with Beagle dogs [4] (15 mg/kg bolus IV) and −41% with Beagle dogs [4] (30 mg/kg bolus IV). Besides, the “MAP and heart rate results compared to propofol” value in the data set with mongrel dogs is given as “no statistically significant differences”. Besides, the “Cardiac output versus baseline” value in the data set with mongrel dogs (IV bolus then stepwise IV infusions 0.25-2.0 mg/kg/min) is “no statistically significant reduction”. Also, the “episodes of vomiting or retching” value in the data set with ferrets is reported as “did not produce any episodes of vomiting or retching”. In addition, the “duration of anesthesia (sleep time)” value was 24 min in the data set on Beagle dogs [5] (5 mg/kg bolus IV), 43 min in the data set with Beagle dogs [5] (10 mg/kg bolus IV), 77 min in the data set on Beagle dogs [5] (15 mg/kg bolus IV) and 105 min in the data set with Beagle dogs [5] (30 mg/kg bolus IV).

These data come from patent US8871815B2, “Therapeutic compounds” (Signature Therapeutics, Inc., priority 2007, dated 2014).
